Test system: Caco-2 cell monolayers
Assay type: in vitro ADME
From the text: Alternatively, the in vitro transporter affinity of a drug substance can be determined and approximated by a Caco-2 cell assay as described, e.g., in […] et al., Pharm. Act. Helv. 71, 309-327 (1996), or as illustrated herein in the Examples. The identification of the transporter protein and the efficacy of a compound to inhibit the efflux system involved may as well be determined in the Caco-2 cell assay. […] Caco-2 cell monolayers grown on PET filters for 21-25 days are used for the transport experiments. The flux of compounds across Caco-2 cell monolayers grown on PET filters as well as across PET filters alone without Caco-2 cells is determined as follows: […] To start the experiment, the medium in the donor compartment (0.35 mL for apical and 1.15 mL for basolateral sides) is replaced with donor solution (compound in HBSS, when relevant containing inhibitor of interest) pre-incubated at 37° C. Aliquots of 150 μL are removed from the donor and the acceptor side after about 1 and 120 min. Transport experiments in both apical-to-basolateral and basolateral-to-apical directions are performed in triplicate at 37° C. in an incubator without shaking. […] Radioactive samples are analyzed by liquid scintillation counting. All other non-radiolabeled samples are kept frozen at -20° C. until analysis by liquid chromatography/tandem mass spectrometry (LC-MS/MS). Transport values of the compounds tested are determined using the following equation (Artursson et al., Biochem. Biophys. Res. Comm. 175: 880-885, 1991): where Papp (cm/min) is the apparent permeability coefficient, ΔQ is the amount of compound found in the acceptor compartment at time t, Δt (min) is the incubation time period, C0 (μg/mL) is the initial concentration of the compound in the donor compartment and A (cm^2) is the surface area of the membrane. […] Under the conditions of this study, the LOQ of absolute radioactivity is 2 dpm for [^14C]-labeled Aliskiren corresponding to 12 nmol/L. Papp values are presented as means±standard deviations of the transport experiments performed (n=3). […]

SMILES	apical to basolateral flux of marker (Papp, below threshold) (human, Caco-2, 120 min) [×10⁻⁶ cm/s]	efflux substrate identification (Caco-2)	intrinsic permeability (human, Caco-2, 120 min) [%]
OC[C@@H](O)[C@@H](O)[C@H](O)[C@H](O)CO [Mannitol]	< 0.5		
COCCCOc1cc(C[C@@H](C[C@H](N)[C@@H](O)C[C@H](C(=O)NCC(C)(C)C(N)=O)C(C)C)C(C)C)ccc1OC [Aliskiren, (2S,4S,5S,7S)-5-amino-4-hydroxy-2-isopropyl-7-[4-methoxy-3-(3-methoxy-propoxy)-benzyl]-8-methyl-nonanoic acid (2-carbamoyl-2-methyl-propyl)-amide hemifumarate]		substrate for a prominent efflux system	< 80

From US20100234467A1, “METHODS FOR IMPROVING BIOAVAILABILITY OF A RENIN INHIBITOR” (priority 2006, published 2010)
